Numbers after ± are expanded uncertainties.
Assay: excess molar enthalpy (molar enthalpy of mixing); xn = mol fraction of the nth substance listed
Conditions: 100 kPa, Liquid, Calvet calorimetry

Row | excess molar enthalpy (1006 K, x2 = 0.0993) [kcal/mol] | excess molar enthalpy (813 K, x1 = 0.9) [kcal/mol] | excess molar enthalpy (1017 K, x1 = 0.0996) [kcal/mol] | excess molar enthalpy (1018 K, x1 = 0.5) [kcal/mol] | SMILES
1 | -0.526 ± 0.287 | – | – | – | [Li] [lithium] + [Zn]
2 | – | 0.191 ± 0.143 | 0.12 ± 0.0478 | 0.382 ± 0.0956 | [Zn] [zinc] + [Ga]

Source: the NIST ThermoML archive (doi:10.1016/j.tca.2017.10.004)
